The record followed here is US8394969B2, “Cyclic benzimidazole derivatives useful as anti-diabetic agents” (Merck Sharp & Dohme Corp., priority 2008, dated 2013).

Molecules are shown by their SMILES.

This test addresses recombinant human AMPK complex 1 (containing α1β1γ1) (Homo sapiens, UniProt Q13131+Q9Y478). The test is described as follows: […] (in vitro AMPK activation assay). As to conditions: recombinant human AMPK complex 1 (α1β1γ1); basal activity subtracted; read-out: % Maximum AMP Activation of human AMPK Complex 1. It counts as biochemical. As to the method: Recombinant viruses were generated by cotransfection of AMPK/pBacPak9 clones with Baculogold baculovirus DNA (Pharmingen) in spodoptera frugiperda 21 cells according to the manufacturer's instructions. Each round of virus amplification was performed for 5 days in Grace's medium containing 10% serum. Virus that had been subjected to three rounds of amplification was used for all protein production procedures. To express the AMPK complex, sf21 cells were adapted to serum free medium (SF900 II, Invitrogen) by sequential dilution from serum containing stocks into SF900 II medium and maintained in shaker flasks at 90 rpm at 27° C. The recombinant AMPK enzyme complex was produced by triple infection, one recombinant virus for each of the subunits, in sf21 cells under serum free conditions. […] Cells were harvested by centrifugation at 10,000×g for 15 minutes after 72 hours of infection with viruses. The insect cell pellet from 2 liters of culture was resuspended in 50 ml lysis buffer (20 mM Tris-HCl, 50 mM NaCl, 50 mM NaF, 30 mM Na PPi, 0.25 M sucrose, 10 mM ZnCl2, 2 mM DTT, 0.4 mg/ml digitonin) and subjected to two cycles of freeze-thaw lysis in a dry-ice ethanol bath. Insoluble material was removed by centrifugation at 10,000×g and the supernatant was fractionated with use of polyethylene glycol (PEG).
The total in vitro AMPK activation assay volume is 50 μl in a 96-well plate. […] The reaction was initiated with addition of the enzyme. After 30-minute incubation at 30° C., the reaction was stopped by addition of 80 μl 1% H3PO4. Aliquots (100 μl) were transferred to 96-well MultiScreen plates (MAPHNOB50; Millipore Corp., Bedford, Mass., USA). The plate was washed three times with 1% H3PO4 followed by detection in a Top-count. The counts per minute from the basal activity (the reaction without activator) was subtracted from each well and the data were expressed as % maximum AMP activation followed by EC50 calculation.

Chain of recombinant human AMPK complex 1 (containing α1β1γ1) (Q13131 whole entry): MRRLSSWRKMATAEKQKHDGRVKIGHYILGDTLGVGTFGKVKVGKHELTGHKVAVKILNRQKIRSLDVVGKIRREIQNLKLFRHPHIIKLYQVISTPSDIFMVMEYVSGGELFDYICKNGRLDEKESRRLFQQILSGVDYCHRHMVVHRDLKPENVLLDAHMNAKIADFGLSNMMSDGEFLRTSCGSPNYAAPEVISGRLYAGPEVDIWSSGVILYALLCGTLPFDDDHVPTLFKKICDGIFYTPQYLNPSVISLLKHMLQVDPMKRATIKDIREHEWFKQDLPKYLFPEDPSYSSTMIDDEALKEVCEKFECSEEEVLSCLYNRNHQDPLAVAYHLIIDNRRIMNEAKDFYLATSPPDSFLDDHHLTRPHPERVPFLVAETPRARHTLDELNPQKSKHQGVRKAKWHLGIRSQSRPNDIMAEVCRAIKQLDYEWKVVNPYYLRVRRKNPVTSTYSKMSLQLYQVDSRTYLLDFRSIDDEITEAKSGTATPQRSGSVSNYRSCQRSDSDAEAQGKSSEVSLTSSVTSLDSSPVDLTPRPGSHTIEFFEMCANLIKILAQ
Chain of recombinant human AMPK complex 1 (containing α1β1γ1) (Q9Y478 whole entry): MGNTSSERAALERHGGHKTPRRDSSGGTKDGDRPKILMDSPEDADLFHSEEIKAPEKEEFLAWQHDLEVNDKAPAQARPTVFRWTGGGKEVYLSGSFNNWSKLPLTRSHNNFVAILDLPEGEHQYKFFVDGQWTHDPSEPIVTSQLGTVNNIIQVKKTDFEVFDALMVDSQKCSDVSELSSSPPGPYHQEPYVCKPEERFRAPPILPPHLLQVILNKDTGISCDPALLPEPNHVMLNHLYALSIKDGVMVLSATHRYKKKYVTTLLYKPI
Chain of recombinant human AMPK complex 1 (containing α1β1γ1) (P54619 whole entry partner): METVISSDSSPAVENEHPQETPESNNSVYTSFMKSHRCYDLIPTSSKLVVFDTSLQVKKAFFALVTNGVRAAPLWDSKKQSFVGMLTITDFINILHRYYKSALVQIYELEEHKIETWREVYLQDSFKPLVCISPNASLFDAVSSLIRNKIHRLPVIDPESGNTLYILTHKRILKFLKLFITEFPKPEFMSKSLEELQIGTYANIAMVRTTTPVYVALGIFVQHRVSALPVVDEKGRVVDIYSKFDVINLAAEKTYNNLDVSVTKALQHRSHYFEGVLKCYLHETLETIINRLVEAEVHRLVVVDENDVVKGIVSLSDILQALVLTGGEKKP

For the molecule `Cc1ccc(Oc2nc3cc(C#Cc4ccc(-n5cccn5)cc4)c(Cl)cc3[nH]2)cc1C(=O)O` [Example 71, 5-[6-Chloro-5-(4-pyrazol-1-yl-phenylethynyl)-1H-benzoimidazol-2-yloxy]-2-methyl-benzoic acid], the Emax was greater than 80%. The result for `Cc1ccc(Oc2nc3cc(C#Cc4ccc(CN)cc4)c(Cl)cc3[nH]2)cc1C(=O)O` [Example 72, 5-[5-(4-Aminomethyl-phenylethynyl)-6-chloro-1H-benzimidazol-2-yloxy]-2-methyl-benzoic acid] reads greater than 80%; that for `Cc1ccc(Oc2nc3cc(C#Cc4ccc(-c5ncc[nH]5)cc4)c(Cl)cc3[nH]2)cc1C(=O)O` [Example 73, 5-{6-Chloro-5-[4-(1H-imidazol-2-yl)-phenylethynyl]1H-benzoimidazol-2-yloxy}-2-methyl-benzoic acid], greater than 80%. Turning to `Cc1ccc(Oc2nc3cc(C#Cc4ccc(-c5cc[nH]n5)cc4)c(Cl)cc3[nH]2)cc1C(=O)O` [Example 74, 5-{6-Chloro-5-[4-(1H-pyrazol-3-yl)-phenylethynyl]-1H-benzoimidazol-2-yloxy}-2-methyl-benzoic acid], the Emax was greater than 80%.

For the molecule `Cc1ccc(Oc2nc3cc(C#Cc4ccc(-c5cnc[nH]5)cc4)c(Cl)cc3[nH]2)cc1C(=O)O` [Example 75, 5-{6-Chloro-5-[4-(3H-imidazol-4-yl)-phenylethynyl]-1H-benzoimidazol-2-yloxy}-2-methyl-benzoic acid], the Emax is greater than 80%.

For the molecule `Cc1ccc(Oc2nc3cc(C#Cc4ccc(F)cc4F)c(Cl)cc3[nH]2)cc1C(=O)O` [Example 76, 5-[6-Chloro-5-(2,4-difluoro-phenylethynyl)-1H-benzoimidazol-2-yloxy]-2-methyl-benzoic acid], the Emax was greater than 80%. The same measure for `Cc1ccc(Oc2nc3cc(C#Cc4ccc(-c5nnc(O)[nH]5)cc4)c(Cl)cc3[nH]2)cc1C(=O)O` [Example 77, 5-{6-Chloro-5-[4-(5-hydroxy-4H-[1,2,4]triazol-3-yl)-phenylethynyl]-1H-benzoimidazol-2-yloxy}-2-methyl-benzoic acid]: greater than 80%; for `Cc1ccc(Oc2nc3cc(C#Cc4ccc(-c5nc[nH]n5)cc4)c(Cl)cc3[nH]2)cc1C(=O)O` [Example 78, 5-{6-Chloro-5-[4-(1H-[1,2,4]triazol-3-yl)-phenylethynyl]-1H-benzoimidazol-2-yloxy}-2-methyl-benzoic acid]: greater than 80%; for `Cc1ccc(Oc2nc3cc(C#Cc4ccc(-c5nn[nH]n5)cc4)c(Cl)cc3[nH]2)cc1C(=O)O` [Example 79, 5-{6-Chloro-5-[4-(2H-tetrazol-5-yl)-phenylethynyl]-1H-benzimidazol-2-yloxy}-2-methyl-benzoic acid]: greater than 80%. The result for `Cc1nc(-c2ccc(C#Cc3cc4nc(Oc5ccc(C)c(C(=O)O)c5)[nH]c4cc3Cl)cc2)no1` [Example 80, 5-{6-Chloro-5-[4-(5-methyl-[1,2,4]oxadiazol-3-yl)-phenylethynyl]-1H-benzoicmidazol-2-yloxy}-2-methyl-benzoic acid] reads greater than 80%; that for `Cc1ccc(Oc2nc3cc(C#Cc4ccc(-c5nc6ccccc6o5)cc4)c(Cl)cc3[nH]2)cc1C(=O)O` [Example 81, 5-[5-(4-Benzooxazol-2-yl-phenylethynyl)-6-chloro-1H-benzoimidazol-2-yloxy]-2-methyl-benzoic acid], greater than 80%; that for `Cc1ccc(Oc2nc3cc(C#Cc4ccc(-c5cn[nH]c5)cc4)c(Cl)cc3[nH]2)cc1C(=O)O` [Example 82, 5-{6-Chloro-5-[4-(1H-pyrazol-4-yl)-phenylethynyl]-1H-benzoimidazol-2-yloxy}-2-methyl-benzoic acid], greater than 80%. Turning to `Cc1ccc(Oc2nc3cc(C#Cc4ccc(-c5cscn5)cc4)c(Cl)cc3[nH]2)cc1C(=O)O` [Example 83, 5-[6-Chloro-5-(4-thiazol-4-yl-phenylethynyl)-1H-benzoimidazol-2-yloxy]-2-methyl-benzoic acid], the Emax was greater than 80%. For `Cc1ccc(Oc2nc3cc(C#Cc4ccc(-c5nccs5)cc4)c(Cl)cc3[nH]2)cc1C(=O)O` [Example 84, 5-[6-Chloro-5-(4-thiazol-2-yl-phenylethynyl)-1H-benzoimidazol-2-yloxy]-2-methyl-benzoic acid], the Emax is greater than 80%. As for `Cc1ccc(Oc2nc3cc(C#Cc4ccc(-c5csnn5)cc4)c(Cl)cc3[nH]2)cc1C(=O)O` [Example 85, 5-[6-Chloro-5-(4-[1,2,3]thiadiazol-4-yl-phenylethynyl)-1H-benzoimidazol-2-yloxy]-2-methyl-benzoic acid], the Emax was greater than 80%. The result for `Cc1ccc(Oc2nc3cc(C#Cc4ccc(-n5ccnc5)cc4)c(Cl)cc3[nH]2)cc1C(=O)O` [Example 86, 5-[6-Chloro-5-(4-imidazol-1-yl-phenylethynyl)-1H-benzoimidazol-2-yloxy]-2-methyl-benzoic acid] reads greater than 80%; that for `Cc1ccc(Oc2nc3cc(C#Cc4ccncc4)c(Cl)cc3[nH]2)cc1C(=O)O` [Example 87, 5-(6-Chloro-5-pyridin-4-ylethynyl-1H-benzoimidazol-2-yloxy)-2-methyl-benzoic acid], greater than 80%; that for `Cc1ccc(Oc2nc3cc(C#Cc4ccc(C(O)C5CC5)cc4)c(Cl)cc3[nH]2)cc1C(=O)O` (stereo not drawn) [Example 88, 5-{6-Chloro-5-[4-(cyclopropyl-hydroxy-methyl)-phenylethynyl]-1H-benzoimidazol-2-yloxy}-2-methyl-benzoic acid], greater than 80%. With `Cc1ccc(Oc2nc3cc(C#Cc4ccc(C5(O)CC5)cc4)c(Cl)cc3[nH]2)cc1C(=O)O` [Example 89, 5-{6-Chloro-5-[4-(1-hydroxy-cyclopropyl)-phenylethynyl]-1H-benzoimidazol-2-yloxy}-2-methyl-benzoic acid], the Emax was greater than 80%.

`Cc1ccc(Oc2nc3cc(C#Cc4ccc(-c5ccccn5)cc4)c(Cl)cc3[nH]2)cc1C(=O)O` [Example 90, 5-[6-Chloro-5-(4-pyridin-2-yl-phenylethynyl)-1H-benzoimidazol-2-yloxy]-2-methyl-benzoic acid]: the Emax was greater than 80%. With `COC(=O)c1ccc(C#Cc2cc3nc(Oc4ccc(C)c(C(=O)O)c4)[nH]c3cc2Cl)cc1` [Example 91, 5-[6-Chloro-5-(4-methoxycarbonyl-phenylethynyl)-1H-benzoimidazol-2-yloxy]-2-methyl-benzoic acid], the Emax was greater than 80%.

On to `Cc1ccc(Oc2nc3cc(C#Cc4ccc(C#N)cc4)c(Cl)cc3[nH]2)cc1C(=O)O` [Example 92, 5-[6-Chloro-5-(4-cyano-phenylethynyl)-1H-benzoimidazol-2-yloxy]-2-methyl-benzoic acid], for which the Emax is greater than 80%.

Take `Cc1ccc(Oc2nc3cc(C#Cc4ccc(C(F)(F)F)cc4)c(Cl)cc3[nH]2)cc1C(=O)O` [Example 93, 5-[6-Chloro-5-(4-trifluoromethyl-phenylethynyl)-1H-benzoimidazol-2-yloxy]-2-methyl benzoic acid]: the Emax was greater than 80%. The same measure for `COc1ccc2cc(C#Cc3cc4nc(Oc5ccc(C)c(C(=O)O)c5)[nH]c4cc3Cl)ccc2c1` [Example 94, 5-[6-Chloro-5-(6-methoxy-naphthalen-2-ylethynyl)-1H-benzoimidazol-2-yloxy]-2-methyl-benzoic acid]: greater than 80%.
